Laboratory results from article PMC7300003, “Alternative catalytic residues in the active site of Esco acetyltransferases” (Scientific Reports, 2020).

Experiments:
HsESCO1 = target: T1, HsESCO1 (Homo sapiens, UniProt Q5FWF5); assay: SMC3 acetylation time course, anti-acetyl-Smc3 immunoblot; assay type: biochemical; conditions: 10 µM AcCoA; acceptor human trimeric or tetrameric cohesin (SMC3 K105/K106); ATP, plasmid DNA, 1 mM MgCl2, pH 7.5, 37 °C
T1 construct: gene ESCO1; full-length, N-terminal His-tag, Sf9 insect cells
T1 sequence (Q5FWF5 1-840): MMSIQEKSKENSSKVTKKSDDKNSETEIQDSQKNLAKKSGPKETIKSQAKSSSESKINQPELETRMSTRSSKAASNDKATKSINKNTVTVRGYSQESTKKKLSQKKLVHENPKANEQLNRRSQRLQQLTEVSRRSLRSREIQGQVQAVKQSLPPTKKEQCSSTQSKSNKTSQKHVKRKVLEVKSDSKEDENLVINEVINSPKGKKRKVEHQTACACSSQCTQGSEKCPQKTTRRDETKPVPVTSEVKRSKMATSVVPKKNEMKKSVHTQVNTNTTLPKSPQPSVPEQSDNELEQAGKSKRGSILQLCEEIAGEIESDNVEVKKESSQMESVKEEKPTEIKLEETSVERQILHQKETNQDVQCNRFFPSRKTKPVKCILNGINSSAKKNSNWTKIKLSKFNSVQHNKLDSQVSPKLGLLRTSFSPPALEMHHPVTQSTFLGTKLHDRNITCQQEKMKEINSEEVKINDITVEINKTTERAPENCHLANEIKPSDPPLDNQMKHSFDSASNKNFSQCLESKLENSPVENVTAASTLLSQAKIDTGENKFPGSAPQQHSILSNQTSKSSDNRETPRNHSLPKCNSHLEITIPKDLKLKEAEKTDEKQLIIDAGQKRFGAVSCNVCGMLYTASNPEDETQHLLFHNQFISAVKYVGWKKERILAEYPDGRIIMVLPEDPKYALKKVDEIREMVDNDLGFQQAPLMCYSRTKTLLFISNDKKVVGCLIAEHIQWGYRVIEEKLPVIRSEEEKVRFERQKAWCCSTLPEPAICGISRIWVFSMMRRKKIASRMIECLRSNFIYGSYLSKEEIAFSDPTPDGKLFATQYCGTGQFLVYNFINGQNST

MmEsco2^368–592 = target: T2, MmEsco2^368–592 (Mus musculus, UniProt Q8CIB9); assay: X-ray crystallography, […] Å (zinc SAD); assay type: binding; conditions: natively bound (co-purified) CoA; active-site groove; pH 8 crystallisation
T2 construct: gene Esco2; residues 368-592 (C2H2 zinc finger and acetyltransferase domain), C-terminal His-tag, Hi5 insect cells
T2 sequence (Q8CIB9 368-592): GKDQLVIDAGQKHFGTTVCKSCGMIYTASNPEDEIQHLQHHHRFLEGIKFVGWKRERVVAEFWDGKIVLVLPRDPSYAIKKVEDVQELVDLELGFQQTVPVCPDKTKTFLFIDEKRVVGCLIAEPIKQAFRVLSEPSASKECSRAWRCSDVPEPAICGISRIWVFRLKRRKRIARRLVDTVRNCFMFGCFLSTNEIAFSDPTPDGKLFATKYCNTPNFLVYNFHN

| Structure (SMILES) | SMC3 acetylation time course, anti-acetyl-Smc3 immunoblot (HsESCO1) | X-ray crystallography, 1.8 Å (zinc SAD) (MmEsco2^368–592) |
| --- | --- | --- |
| CC(=O)SCCNC(=O)CCNC(=O)[C@H](O)C(C)(C)COP(=O)(O)OP(=O)(O)OC[C@H]1O[C@@H](n2cnc3c(N)ncnc32)[C@H](O)[C@@H]1OP(=O)(O)O [AcCoA] | The purified tetrameric cohesin complex was incubated with HsESCO1 and AcCoA | – |
| CC(C)(COP(=O)(O)OP(=O)(O)OC[C@H]1O[C@@H](n2cnc3c(N)ncnc32)[C@H](O)[C@@H]1OP(=O)(O)O)[C@@H](O)C(=O)NCCC(=O)NCCS [CoA] | – | The CoA cofactor is natively present in a complex with MmEsco2 in a groove |
